Experimental data published in patent US9018351B2, “Peptide aptamers against tenascin C” (Industry-Academy Cooperation Foundation, priority 2007, dated 2015).

Key:
tenascin C [1] = assay: Immunofluorescence on frozen tumor xenograft tissue sections; assay type: binding, human; conditions: for staining of U118MG-derived tumor xenograft tissue sections: U118MG glioblastoma xenograft in nude mice, 10 μM biotin-labeled peptide or antibody 1:1000, O/N 4° C.
Procedure: FIGS. 4A-4C represent immunofluorescence detection for binding of #2 peptide aptamer to U118MG-derived tumor xenograft tissue. Frozen tissue sections were incubated at 4° C. for O/N with anti-tenascin C antibody (1:1000 dilution) (FIG. 4A), anti-β-catenin antibody (1:100 dilution) (FIG. 4B), 10 μM biotin-labeled peptide aptamer (#2) or scrambled peptide (#2 scr) (FIG. 4C). Tissues were counterstained with Hoechst33258. Arrows indicate examples of positively stained cells. Magnification, ×630. Results using a xenograft mouse model with HT-29 colon cancer cells are also shown (FIG. 4D).
A tumor xenograft was established by subcutaneous injection of 2×10^6 HT29 or U118MG cells into one flank of nude mice. When the tumor diameter reached approximately 9-10 mm, the mice were killed, and the tumor tissue was obtained and […] for storage at −80° C. Frozen sections 8-10 μm thick were cut, fixed with 3.7% paraformaldehyde for 15 min at room temperature, and permeabilized with 0.5% Triton X-100 in PBS. The cells were washed and blocked with 10% fetal bovine serum, 10% non fat dry milk and 3% BSA in PBS for 2 hrs at room temperature. They were stained with anti-tenascin C antibody (BC24; Sigma-Aldrich, Saint Louis, Miss., 1:1000 dilution), anti-β-catenin antibody (clone 14; BD Transduction Laboratories, Germany, 1:100 dilution), or biotin-labeled peptide for O/N at 4° C. Secondary FITC-conjugated anti-mouse IgG antibody (Sigma-Aldrich, Saint Louis, Miss., 1:1000 dilution) or TEXAS RED-conjugated streptavidin (Calbiochem, La Jolla, Calif., 1:1000 dilution) was used for 1 hr at room temperature in the dark. Cells were counterstained with Hoechst33258.

[2] = tested on: tenascin C-induced cell migration, U118MG cells; assay: Wound scratch assay; assay type: cell-based, human; conditions: serum free medium, 18 hrs
Procedure: (§1) FIGS. 6A-6D represent reversion of tenascin-C-induced cell morphology and migration by the peptide aptamer. […] Magnification, ×100. FIG. 6B was the results that numbers of round cell was scored and presented as percentage. Four independent experiments were performed. FIG. 6C represented U118MG migration with #2 peptides or scrambled peptides. The data are representative of three independent experiments. SD, P<0.001 relative to no treated samples. […] Whole cell extract were prepared and with anti-β-catenin antibody. Anti-β-actin was used as control.
U118MG cells were grown until they become confluent on a 35 mm dish and were serum starved for 18 hrs in DMEM. A straight line was drawn with a marker on the outer surface of the dish bottom and an artificial wound was made by using a pipet tip. The dish was rinsed and then incubated with the serum free medium in the presence of #2 peptides or #2 scramble peptides. After 18 hrs incubation, cells were counted.

tenascin C [3] = target: T1, tenascin C (Homo sapiens, UniProt P24821); assay: Immunofluorescence analysis of lung tissue microarray; assay type: binding
T1 construct: a tissue microarray prepared with tissues from 52 lung cancer patients; from tissue; host or cells: paraffin-embedded human lung tumor and normal lung tissue (Seoul National University Bundang Hospital)
T1 sequence (P24821 23-2201): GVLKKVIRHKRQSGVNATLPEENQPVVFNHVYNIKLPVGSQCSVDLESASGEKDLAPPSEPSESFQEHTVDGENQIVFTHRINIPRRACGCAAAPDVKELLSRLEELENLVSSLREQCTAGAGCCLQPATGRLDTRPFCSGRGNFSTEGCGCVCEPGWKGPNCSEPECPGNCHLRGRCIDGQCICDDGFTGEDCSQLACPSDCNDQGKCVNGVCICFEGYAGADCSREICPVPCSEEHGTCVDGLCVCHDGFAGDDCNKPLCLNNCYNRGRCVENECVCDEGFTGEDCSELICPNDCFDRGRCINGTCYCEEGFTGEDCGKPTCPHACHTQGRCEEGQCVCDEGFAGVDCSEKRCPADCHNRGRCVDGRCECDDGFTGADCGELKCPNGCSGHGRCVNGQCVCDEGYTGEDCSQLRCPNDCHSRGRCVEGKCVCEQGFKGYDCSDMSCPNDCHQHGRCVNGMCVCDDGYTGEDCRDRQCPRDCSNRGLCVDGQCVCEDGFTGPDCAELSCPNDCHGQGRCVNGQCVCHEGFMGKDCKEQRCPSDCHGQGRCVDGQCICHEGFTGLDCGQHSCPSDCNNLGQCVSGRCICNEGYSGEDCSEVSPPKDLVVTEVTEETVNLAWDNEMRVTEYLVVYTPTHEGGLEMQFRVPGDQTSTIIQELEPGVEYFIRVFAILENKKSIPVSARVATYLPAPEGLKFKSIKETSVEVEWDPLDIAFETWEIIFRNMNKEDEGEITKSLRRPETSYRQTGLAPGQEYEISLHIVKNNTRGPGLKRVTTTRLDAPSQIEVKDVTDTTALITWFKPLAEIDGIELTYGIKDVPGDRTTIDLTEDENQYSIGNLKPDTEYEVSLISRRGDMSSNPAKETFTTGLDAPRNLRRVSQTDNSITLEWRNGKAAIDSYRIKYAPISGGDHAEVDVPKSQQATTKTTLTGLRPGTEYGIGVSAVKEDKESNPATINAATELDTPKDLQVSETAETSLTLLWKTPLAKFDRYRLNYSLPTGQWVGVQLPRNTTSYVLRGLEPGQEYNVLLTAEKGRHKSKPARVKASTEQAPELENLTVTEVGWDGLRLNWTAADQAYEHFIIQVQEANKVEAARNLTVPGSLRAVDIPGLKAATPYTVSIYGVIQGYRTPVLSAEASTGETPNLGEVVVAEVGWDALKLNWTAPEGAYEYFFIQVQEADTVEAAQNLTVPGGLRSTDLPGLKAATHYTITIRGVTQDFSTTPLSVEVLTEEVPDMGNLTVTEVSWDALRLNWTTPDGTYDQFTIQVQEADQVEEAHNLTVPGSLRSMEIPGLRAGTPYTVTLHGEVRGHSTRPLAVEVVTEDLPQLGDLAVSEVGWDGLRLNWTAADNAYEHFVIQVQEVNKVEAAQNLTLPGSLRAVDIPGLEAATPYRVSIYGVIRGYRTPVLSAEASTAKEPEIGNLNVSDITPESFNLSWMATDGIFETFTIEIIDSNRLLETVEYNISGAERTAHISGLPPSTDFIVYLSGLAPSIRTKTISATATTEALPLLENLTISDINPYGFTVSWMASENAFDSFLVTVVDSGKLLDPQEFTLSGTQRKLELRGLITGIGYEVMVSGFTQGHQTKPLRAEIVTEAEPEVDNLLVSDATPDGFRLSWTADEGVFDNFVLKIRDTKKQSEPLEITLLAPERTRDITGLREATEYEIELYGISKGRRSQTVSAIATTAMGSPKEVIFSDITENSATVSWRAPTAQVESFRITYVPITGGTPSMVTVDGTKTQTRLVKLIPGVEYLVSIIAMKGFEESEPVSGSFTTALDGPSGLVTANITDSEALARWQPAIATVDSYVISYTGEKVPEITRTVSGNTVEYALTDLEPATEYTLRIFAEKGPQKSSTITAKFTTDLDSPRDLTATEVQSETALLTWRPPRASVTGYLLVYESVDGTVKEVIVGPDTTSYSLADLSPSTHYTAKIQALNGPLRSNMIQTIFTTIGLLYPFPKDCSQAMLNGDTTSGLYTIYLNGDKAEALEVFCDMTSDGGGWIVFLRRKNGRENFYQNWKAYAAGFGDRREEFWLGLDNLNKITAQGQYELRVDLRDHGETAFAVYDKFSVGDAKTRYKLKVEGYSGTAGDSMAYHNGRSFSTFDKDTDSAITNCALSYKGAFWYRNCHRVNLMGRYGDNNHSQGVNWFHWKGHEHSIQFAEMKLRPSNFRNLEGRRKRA
Procedure: FIGS. 5A-5D represent detection for binding of peptide aptamer #2 to tumor patient lung tissue. Paraffin-embedded lung tissue from an adenocarcinoma (FIG. 5A), squamous cell carcinoma (FIG. 5B), bronchioloalveolar carcinoma (FIG. 5C) and normal (FIG. 5D) tissue was incubated at 4° C. for O/N with anti-tenascin C antibody (1:1000 dilution) or with biotin-labeled peptide aptamer #2 (10 μM). Tissues were counterstained with Hoechst33258. Magnification, ×630.
The lung tissue microarray was constructed from archived paraffin blocks at Seoul National University Bundang Hospital. It is composed of 36 adenocarcinomas, 15 squamous cell carcinomas, 1 bronchioloalveolar carcinoma, and 1 normal lung. Sections were dewaxed in xylene and rehydrated in graded concentrations of ethanol and distilled water. For antigen retrieval, sections were heated for 20 min in Target Retrieval Solution, Tris/EDTA (pH 9; Dako) using a pressure cooker. Staining was carried out with anti-tenascin C antibody (BC24; Sigma-aldrich, Saint Louis, Mo., 1:1000 dilution) or biotin-labeled peptide for O/N at 4° C. Secondary anti-mouse FITC-conjugated IgG antibody or TEXAS RED-conjugated streptavidin was used for 1 hr at room temperature in the dark. Cells were counterstained with Hoechst33258.

[4] = tested on: tenascin C-induced cell rounding; assay: Adhesion assay on fibronectin/tenascin C substratum; assay type: cell-based, human; conditions: glioblastoma cells on fibronectin/tenascin C substratum, 18 hrs
Procedure: as §1
Microtiter plates (6-well, Nunc, Roskilde, Denmark) were coated with 1 μg/cm^2 of fibrobectin or fibronectin and tenascin C for overnight at 4° C. The noncoated plastic surface was blocked with 1% heat-inactivated BSA in PBS. Before plating, cells were serum starved for 18 hrs in DMEM and trypsinized. Following soybean trypsin inhibitor treatment (100 μg/ml in PBS), cells were resuspended in serum-free medium and counted by hematocytometer. Approximately 1×10^5 cells were plated in each well and the selected peptide aptamer or scramble peptide was treated for 18 hrs, cells were observed under microscope.

[5] = tested on: endogenously expressed tenascin C in the cultured cell lines; assay: Immunocytochemistry of cultured cancer cell lines with biotin-labeled peptide; assay type: binding, human; conditions: 1 mM biotin-labeled peptide, 1 hr, room temperature; for staining of SW620 cells: SW620 (medium tenascin C expression)
Procedure: FIGS. 3A-3C represent binding pattern of the selected peptides to cultured cells. Cultured cells of SW620 (FIG. 3A), U251 (FIG. 3B) and HCT116 (FIG. 3C) were incubated at room temperature for 1 hr with 1 mM of biotin-labeled peptide aptamers (#1, #2), control peptide (NC), or peptide aptamer #2 (1 mM) plus anti-tenascin C antibody (1:1000 dilution). Nuclei were counterstained with Hoechst33258. Arrows indicate examples of positively stained cells. Magnification, ×1000 (FIG. 3A and FIG. 3C), ×630 (FIG. 3B). Cells were grown on coverslips, fixed with 3.7% paraformaldehyde for 15 min at room temperature, and permeabilized with 0.5% Triton X-100 in PBS. They were washed and blocked in 10% normal calf serum, 0.5% gelatin in PBS for 30 min at room temperature. Staining was carried out with biotin-labeled peptide for 1 hr at room temperature. Secondary TEXAS RED-conjugated streptavidin (Calbiochem, La Jolla, Calif., 1:200 dilution) was applied at room temperature for 50 min in the dark. The cells were counterstained with Hoechst33258. The present inventors utilized U251, SW620 and HCT116 cells as model cell lines for high, medium and no expression of tenascin C protein, respectively (FIG. 1). The biotin-labeled peptide aptamers were used to test whether they recognized the endogenously expressed tenascin C in the cultured cell lines. […] There was no signal with the negative peptide or when aptamer was omitted. Since the peptide aptamer #2 have high frequency and observed a higher level of staining, we used it in subsequent work. The level of staining with U251 cells was higher than with SW620 cells, which may reflect a higher level of tenascin C expression.

Sequence | staining of HT-29 tumor xenograft tissue sections (tenascin C [1]; HT-29 colon cancer xenograft (does not express tenascin C)) | staining of U118MG-derived tumor xenograft tissue sections (tenascin C [1]) | effect on tenascin C-induced cell migration [2] | staining of normal lung tissue (tenascin C [3]; 1 normal lung, 10 μM biotin-labeled peptide, O/N 4° C.) | staining of lung cancer patient tissues (tenascin C [3]; 52 lung cancer patients, 10 μM biotin-labeled peptide or antibody 1:1000, O/N 4° C.) | effect on tenascin C-induced rounding morphology [4] | staining of HCT116 cells ([5]; HCT116 (no tenascin C expression)) | staining of SW620 cells [5] | staining of U251 cells ([5]; U251 (high tenascin C expression))
FHKHKSPALSPVGGG [peptide aptamer #2] | no aptamer signal was detected | same prominent pattern of staining in the forms of spots and blobs | significantly reduced | No peptide aptamer #2 staining was detected | striking similarity of the staining patterns | significant reversion of tenascin C-induced rounding morphology | no signal was detected | characteristic staining pattern of spots or long streaks in a polarized region of the plasma membrane | stained two distinct areas of the U251 cells
VSPKSHLKAHPFGGG [#2 scramble, scrambled form of peptide #2, control, reference compound] | – | no significant staining | No significant reduction in cell migration | – | – | no significant change | – | – | –
FHKPFFPKGSARGGG [peptide aptamer #1] | – | – | – | – | – | – | – | characteristic staining pattern of spots or long streaks in a polarized region of the plasma membrane | –
